The source of these data is ChEMBL document CHEMBL5365552, “Tryptamines and Mental Health: Activating the 5-HT Receptor for Therapeutic Potential” (ACS Med Chem Lett, 2023).

Format in all cases: ADME, organism-based
Series [1] can be described thus: Prodrug conversion in rat assessed as 4-OH-DiPT formation by measuring Tmax at 2 mg/kg, sc measured for 15 to 360 mins by LCMS analysis. The following applies: in vivo, time 15-360 min.
Series [2] can be described thus: Prodrug conversion in rat assessed as 4-OH-DiPT formation by measuring AUC at 2 mg/kg, sc measured for 15 to 360 mins by LCMS analysis. The following applies: in vivo. Also on record: dose 2 mg/kg, time upper 360 min, time lower 15 min, route sc.
The nature of series [3]: Prodrug conversion in rat assessed as 4-OH-DiPT formation by measuring Cmax at 2 mg/kg, iv measured for 15 to 360 mins by LCMS analysis. Also noted: time upper 360 min, dose 2 mg/kg, time lower 15 min, route iv. The following applies: in vivo.
A short description of series [4]: Prodrug conversion in rat assessed as 4-OH-DiPT formation by measuring bioavailability at 2 mg/kg, sc measured for 15 to 360 mins by LCMS analysis. The following applies: in vivo, time 15-360 min.
A short description of series [5]: Prodrug conversion in rat assessed as 4-OH-DiPT formation by measuring AUC at 2 mg/kg, iv measured for 15 to 360 mins by LCMS analysis. Also noted: dose 2 mg/kg, time 15-360 min, route iv. The following applies: in vivo.
Series [6] can be described thus: Prodrug conversion in rat assessed as 4-OH-DiPT formation by measuring Cmax at 2 mg/kg, sc measured for 15 to 360 mins by LCMS analysis. Also noted: time upper 360 min, time lower 15 min, dose 2 mg/kg, route sc. The following applies: in vivo.

For orientation: Tmax means the time from dosing to the highest level. The AUC is concentration integrated over time. A word on the Cmax: it is the peak of the concentration-time curve. Turning to `CC(C)N(CCc1c[nH]c2cccc(OC(=O)CCCC(=O)O)c12)C(C)C`, the Tmax in series [1] stood at 36.6 min. Further, the AUC amounted to 134 ng·h/mL in series [2] and 152 ng·h/mL in series [5]. The highest concentration (Cmax) in series [3] stood at 458 ng/mL; in series [6] it was 103 ng/mL. For the same compound, in series [4], the F was found to be 89%.
